According to US11034725B2, “Compositions and methods for treating cardiovascular disease” (Genentech, Inc., priority 2016, dated 2021):
Like-named read-outs stand apart in the source and are kept apart here. Numbered stars: 1 amine (or outer) side, 2 acyl side, 3 side chain; on linkers, the order of the positions; unused ones are H or OH. Peptide text beside a SMILES is read from it. * marks the point of attachment. Propanoyl(3-(4-MeO-Ph)) = COc1ccc(CCC(=O)*)cc1; Propanoyl(3-(3-pyridyl)) = O=C(CCc1cccnc1)*; Benzoyl(4-Ph) = O=C(c1ccc(-c2ccccc2)cc1)*; X43 = CS(=O)(=O)c1ccc(C(=O)CCC(=O)*)cc1; Desaminotyrosyl = O=C(CCc1ccc(O)cc1)*; Pentanoyl(5-Ph) = O=C(CCCCc1ccccc1)*; Propanoyl(3-cHex) = O=C(CCC1CCCCC1)*; X16 = O=C(c1cc(-c2ccncc2)[nH]n1)*; X37 = Cc1ccc(C(=O)CCC(=O)*)cc1; X39 = O=C(C1CCC(c2ccccc2)CC1)*; X22 = O=C(C1CC(Cc2ccccc2)C1)*; X8 = O=C(c1ccc(N2CCOCC2)nc1)*; Suc = O=C(CCC(=O)[*:2])[*:1]; X40 = CC(CC(=O)*)CC(C)(C)C; X10 = Nc1cccc(CCC(=O)*)c1; X29 = Nc1ccc(CCC(=O)*)cc1; X30 = O=C(CCc1cccc(O)c1)*; X35 = Nc1ccc(CCC(=O)*)cn1; Morpholide = C1CN(*)CCO1; X27 = O=C(CCCN1CCOCC1)*; Cbz = O=C(OCc1ccccc1)*; X2 = CC(C)(C)CCCC(=O)*; GABA = NCCCC(=O)O

Legend:
PCSK9 = PCSK9 (Homo sapiens, UniProt Q8NBP7); test: PCSK9/EGF(A) TR-FRET binding assay; settings: Table 8E, additional compounds
PCSK9Δhelix = target: T1, PCSK9Δhelix (Homo sapiens, UniProt Q8NBP7); test: PCSK9Δhelix/Ab20 TR-FRET binding assay; settings: Table 8E, additional compounds
T1 construct: Human PCSK9 construct M1-Q692 with an engineered TEV site (residue deletion Y166, R167); made in house; host or cells: CHO

[1] = TR-FRET, read-out: PCSK9/EGF(A) IC50
[2] = TR-FRET, read-out: PCSK9Δhelix/Ab20 IC50

T1 sequence (Q8NBP7 with tags, fused parts or gaps limits assumed): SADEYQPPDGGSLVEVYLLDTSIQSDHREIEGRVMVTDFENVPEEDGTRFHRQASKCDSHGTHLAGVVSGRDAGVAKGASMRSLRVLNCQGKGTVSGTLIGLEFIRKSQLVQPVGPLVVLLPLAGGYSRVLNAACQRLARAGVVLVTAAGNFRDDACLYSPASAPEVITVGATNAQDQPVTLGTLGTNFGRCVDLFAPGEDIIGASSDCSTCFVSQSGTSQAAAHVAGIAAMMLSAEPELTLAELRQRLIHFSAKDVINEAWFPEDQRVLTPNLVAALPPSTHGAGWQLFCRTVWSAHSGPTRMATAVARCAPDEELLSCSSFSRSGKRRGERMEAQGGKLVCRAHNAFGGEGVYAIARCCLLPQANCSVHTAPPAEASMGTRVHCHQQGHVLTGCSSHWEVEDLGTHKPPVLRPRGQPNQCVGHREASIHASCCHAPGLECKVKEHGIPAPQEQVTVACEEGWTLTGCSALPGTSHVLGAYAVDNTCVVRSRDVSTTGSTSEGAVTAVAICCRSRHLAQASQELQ
T1 sequence (Q8NBP7 31-152 partner limits assumed): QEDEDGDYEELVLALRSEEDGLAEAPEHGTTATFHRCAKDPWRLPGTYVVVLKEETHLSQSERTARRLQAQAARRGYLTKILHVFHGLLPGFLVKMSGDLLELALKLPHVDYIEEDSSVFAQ
Sequence of PCSK9 (Q8NBP7 153-692): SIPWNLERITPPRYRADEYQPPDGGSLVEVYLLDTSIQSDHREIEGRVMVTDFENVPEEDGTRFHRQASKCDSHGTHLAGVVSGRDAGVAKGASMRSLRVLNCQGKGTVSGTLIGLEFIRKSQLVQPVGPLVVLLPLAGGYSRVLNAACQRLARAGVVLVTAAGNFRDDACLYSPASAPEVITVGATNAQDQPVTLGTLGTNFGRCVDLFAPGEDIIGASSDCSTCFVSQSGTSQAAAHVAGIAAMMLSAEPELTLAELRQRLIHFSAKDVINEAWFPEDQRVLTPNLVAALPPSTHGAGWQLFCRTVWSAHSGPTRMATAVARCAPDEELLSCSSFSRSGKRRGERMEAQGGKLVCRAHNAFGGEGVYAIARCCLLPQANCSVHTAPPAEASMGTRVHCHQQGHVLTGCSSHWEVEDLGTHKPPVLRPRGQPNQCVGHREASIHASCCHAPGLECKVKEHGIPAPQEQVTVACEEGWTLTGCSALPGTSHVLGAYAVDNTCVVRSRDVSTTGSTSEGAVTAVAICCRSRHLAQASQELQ
Sequence of PCSK9 (Q8NBP7 31-152 partner limits assumed): as the sequence (Q8NBP7 31-152 partner limits assumed) above

SMILES	IC50 (PCSK9; [1]) [µM]	IC50 (PCSK9Δhelix; [2]) [µM]	IC50 (PCSK9; PCSK9/EGF(A) IC50, TR-FRET) [µM]	IC50 (PCSK9Δhelix; PCSK9Δhelix/Ab20 IC50, TR-FRET) [µM]
CC[C@H](C)[C@H](NC(=O)[C@H](CCCNC(=N)N)NC(=O)[C@@H](NC(=O)[C@H](CC(C)C)NC(=O)[C@H](CC(N)=O)NC(=O)[C@H](Cc1c[nH]c2ccccc12)NC(=O)C1CC(Cc2ccccc2)C1)C(C)C)C(=O)NCC(=O)N[C@@H](CC(C)C)C(=O)N[C@@H](CC(C)C)C(=O)N[C@@H](CCCNC(=N)N)C(N)=O (stereo partly drawn) [Compound 144] (X22-WNLVRIGLLR-NH2)	9.7	4	–	–
CC[C@H](C)[C@H](NC(=O)[C@H](CCCNC(=N)N)NC(=O)[C@@H](NC(=O)[C@H](CC(C)C)NC(=O)[C@H](CC(N)=O)NC(=O)[C@H](Cc1c[nH]c2ccccc12)NC(=O)c1ccc(-c2ccccc2)cc1)C(C)C)C(=O)NCC(=O)N[C@@H](CC(C)C)C(=O)N[C@@H](CC(C)C)C(=O)N[C@@H](CCCNC(=N)N)C(N)=O [Compound 145] ({Benzoyl(4-Ph)}-WNLVRIGLLR-NH2)	–	–	7.3	2.2
CC[C@H](C)[C@H](NC(=O)[C@H](CCCNC(=N)N)NC(=O)[C@@H](NC(=O)[C@H](CC(C)C)NC(=O)[C@H](CC(N)=O)NC(=O)[C@H](Cc1c[nH]c2ccccc12)NC(=O)CCCCc1ccccc1)C(C)C)C(=O)NCC(=O)N[C@@H](CC(C)C)C(=O)N[C@@H](CC(C)C)C(=O)N[C@@H](CCCNC(=N)N)C(N)=O [Compound 146] ({Pentanoyl(5-Ph)}-WNLVRIGLLR-NH2)	11	1.7	–	–
CC[C@H](C)[C@H](NC(=O)[C@H](CCCNC(=N)N)NC(=O)[C@@H](NC(=O)[C@H](CC(C)C)NC(=O)[C@H](CC(N)=O)NC(=O)[C@H](Cc1c[nH]c2ccccc12)NC(=O)C1CCC(c2ccccc2)CC1)C(C)C)C(=O)NCC(=O)N[C@@H](CC(C)C)C(=O)N[C@@H](CC(C)C)C(=O)N[C@@H](CCCNC(=N)N)C(N)=O (stereo partly drawn) [Compound 147] (X39-WNLVRIGLLR-NH2)	2.6	0.41	–	–
CC[C@H](C)[C@H](NC(=O)[C@H](CCCNC(=N)N)NC(=O)[C@@H](NC(=O)[C@H](CC(C)C)NC(=O)[C@H](CC(N)=O)NC(=O)[C@H](Cc1c[nH]c2ccccc12)NC(=O)CCCC(C)(C)C)C(C)C)C(=O)NCC(=O)N[C@@H](CC(C)C)C(=O)N[C@@H](CC(C)C)C(=O)N[C@@H](CCCNC(=N)N)C(N)=O [Compound 148] (X2-WNLVRIGLLR-NH2)	19	11	–	–
CC[C@H](C)[C@H](NC(=O)[C@H](CCCNC(=N)N)NC(=O)[C@@H](NC(=O)[C@H](CC(C)C)NC(=O)[C@H](CC(N)=O)NC(=O)[C@H](Cc1c[nH]c2ccccc12)NC(=O)CC(C)CC(C)(C)C)C(C)C)C(=O)NCC(=O)N[C@@H](CC(C)C)C(=O)N[C@@H](CC(C)C)C(=O)N[C@@H](CCCNC(=N)N)C(N)=O (stereo partly drawn) [Compound 149] (X40-WNLVRIGLLR-NH2)	11	8.9	–	–
CC[C@H](C)[C@H](NC(=O)[C@H](CCCNC(=N)N)NC(=O)[C@@H](NC(=O)[C@H](CC(C)C)NC(=O)[C@H](CC(N)=O)NC(=O)[C@H](Cc1c[nH]c2ccccc12)NC(=O)c1cc(-c2ccncc2)[nH]n1)C(C)C)C(=O)NCC(=O)N[C@@H](CC(C)C)C(=O)N[C@@H](CC(C)C)C(=O)N[C@@H](CCCNC(=N)N)C(N)=O [Compound 150] (X16-WNLVRIGLLR-NH2)	22	8.2	–	–
CC[C@H](C)[C@H](NC(=O)[C@H](CCCNC(=N)N)NC(=O)[C@@H](NC(=O)[C@H](CC(C)C)NC(=O)[C@H](CC(N)=O)NC(=O)[C@H](Cc1c[nH]c2ccccc12)NC(=O)CCC1CCCCC1)C(C)C)C(=O)NCC(=O)N[C@@H](CC(C)C)C(=O)N[C@@H](CC(C)C)C(=O)N[C@@H](CCCNC(=N)N)C(N)=O [Compound 151] ({Propanoyl(3-cHex)}-WNLVRIGLLR-NH2)	6.9	2.5	–	–
CC[C@H](C)[C@H](NC(=O)[C@H](CCCNC(=N)N)NC(=O)[C@@H](NC(=O)[C@H](CC(C)C)NC(=O)[C@H](CC(N)=O)NC(=O)[C@H](Cc1c[nH]c2ccccc12)NC(=O)CCc1ccc(N)cc1)C(C)C)C(=O)NCC(=O)N[C@@H](CC(C)C)C(=O)N[C@H](C(=O)N[C@@H](CCCNC(=N)N)C(N)=O)[C@@H](C)O [Compound 161] (X29-WNLVRIGLTR-NH2)	≥ 50	5	–	–
CC[C@H](C)[C@H](NC(=O)[C@H](CCCNC(=N)N)NC(=O)[C@@H](NC(=O)[C@H](CC(C)C)NC(=O)[C@H](CC(N)=O)NC(=O)[C@H](Cc1c[nH]c2ccccc12)NC(=O)CCCN1CCOCC1)C(C)C)C(=O)NCC(=O)N[C@@H](CC(C)C)C(=O)N[C@H](C(=O)N[C@@H](CCCNC(=N)N)C(N)=O)[C@@H](C)O [Compound 162] (X27-WNLVRIGLTR-NH2)	≥ 50	37	–	–
CC[C@H](C)[C@H](NC(=O)[C@H](CCCNC(=N)N)NC(=O)[C@@H](NC(=O)[C@H](CC(C)C)NC(=O)[C@H](CC(N)=O)NC(=O)[C@H](Cc1c[nH]c2ccccc12)NC(=O)CCC(=O)c1ccc(S(C)(=O)=O)cc1)C(C)C)C(=O)NCC(=O)N[C@@H](CC(C)C)C(=O)N[C@H](C(=O)N[C@@H](CCCNC(=N)N)C(N)=O)[C@@H](C)O [Compound 163] (X43-WNLVRIGLTR-NH2)	≥ 50	37	–	–
CC[C@H](C)[C@H](NC(=O)[C@H](CCCNC(=N)N)NC(=O)[C@@H](NC(=O)[C@H](CC(C)C)NC(=O)[C@H](CC(N)=O)NC(=O)[C@H](Cc1c[nH]c2ccccc12)NC(=O)CCc1cccc(N)c1)C(C)C)C(=O)NCC(=O)N[C@@H](CC(C)C)C(=O)N[C@H](C(=O)N[C@@H](CCCNC(=N)N)C(N)=O)[C@@H](C)O [Compound 164] (X10-WNLVRIGLTR-NH2)	≥ 50	12	–	–
CC[C@H](C)[C@H](NC(=O)[C@H](CCCNC(=N)N)NC(=O)[C@@H](NC(=O)[C@H](CC(C)C)NC(=O)[C@H](CC(N)=O)NC(=O)[C@H](Cc1c[nH]c2ccccc12)NC(=O)CCC(=O)c1ccc(C)cc1)C(C)C)C(=O)NCC(=O)N[C@@H](CC(C)C)C(=O)N[C@H](C(=O)N[C@@H](CCCNC(=N)N)C(N)=O)[C@@H](C)O [Compound 165] (X37-WNLVRIGLTR-NH2)	≥ 50	18	–	–
CC[C@H](C)[C@H](NC(=O)[C@H](CCCNC(=N)N)NC(=O)[C@@H](NC(=O)[C@H](CC(C)C)NC(=O)[C@H](CC(N)=O)NC(=O)[C@H](Cc1c[nH]c2ccccc12)NC(=O)CCc1ccc(OC)cc1)C(C)C)C(=O)NCC(=O)N[C@@H](CC(C)C)C(=O)N[C@H](C(=O)N[C@@H](CCCNC(=N)N)C(N)=O)[C@@H](C)O [Compound 166] ({Propanoyl(3-(4-MeO-Ph))}-WNLVRIGLTR-NH2)	≥ 50	5.9	–	–
CC[C@H](C)[C@H](NC(=O)[C@H](CCCNC(=N)N)NC(=O)[C@@H](NC(=O)[C@H](CC(C)C)NC(=O)[C@H](CC(N)=O)NC(=O)[C@H](Cc1c[nH]c2ccccc12)NC(=O)CCC(=O)N1CCOCC1)C(C)C)C(=O)NCC(=O)N[C@@H](CC(C)C)C(=O)N[C@H](C(=O)N[C@@H](CCCNC(=N)N)C(N)=O)[C@@H](C)O [Compound 167] ({Morpholide-Suc}-WNLVRIGLTR-NH2)	≥ 50	43	–	–
CC[C@H](C)[C@H](NC(=O)[C@H](CCCNC(=N)N)NC(=O)[C@@H](NC(=O)[C@H](CC(C)C)NC(=O)[C@H](CC(N)=O)NC(=O)[C@H](Cc1c[nH]c2ccccc12)NC(=O)CCc1cccc(O)c1)C(C)C)C(=O)NCC(=O)N[C@@H](CC(C)C)C(=O)N[C@H](C(=O)N[C@@H](CCCNC(=N)N)C(N)=O)[C@@H](C)O [Compound 168] (X30-WNLVRIGLTR-NH2)	≥ 50	7.8	–	–
CC[C@H](C)[C@H](NC(=O)[C@H](CCCNC(=N)N)NC(=O)[C@@H](NC(=O)[C@H](CC(C)C)NC(=O)[C@H](CC(N)=O)NC(=O)[C@H](Cc1c[nH]c2ccccc12)NC(=O)CCCNC(=O)OCc1ccccc1)C(C)C)C(=O)NCC(=O)N[C@@H](CC(C)C)C(=O)N[C@H](C(=O)N[C@@H](CCCNC(=N)N)C(N)=O)[C@@H](C)O [Compound 169] ({Cbz-GABA}-WNLVRIGLTR-NH2)	≥ 50	6.8	–	–
CC[C@H](C)[C@H](NC(=O)[C@H](CCCNC(=N)N)NC(=O)[C@@H](NC(=O)[C@H](CC(C)C)NC(=O)[C@H](CC(N)=O)NC(=O)[C@H](Cc1c[nH]c2ccccc12)NC(=O)CCc1ccc(O)cc1)C(C)C)C(=O)NCC(=O)N[C@@H](CC(C)C)C(=O)N[C@H](C(=O)N[C@@H](CCCNC(=N)N)C(N)=O)[C@@H](C)O [Compound 170] (Desaminotyrosyl-WNLVRIGLTR-NH2)	≥ 50	3.1	–	–
CC[C@H](C)[C@H](NC(=O)[C@H](CCCNC(=N)N)NC(=O)[C@@H](NC(=O)[C@H](CC(C)C)NC(=O)[C@H](CC(N)=O)NC(=O)[C@H](Cc1c[nH]c2ccccc12)NC(=O)CCc1ccc(N)nc1)C(C)C)C(=O)NCC(=O)N[C@@H](CC(C)C)C(=O)N[C@H](C(=O)N[C@@H](CCCNC(=N)N)C(N)=O)[C@@H](C)O [Compound 171] (X35-WNLVRIGLTR-NH2)	≥ 50	7.7	–	–
CC[C@H](C)[C@H](NC(=O)[C@H](CCCNC(=N)N)NC(=O)[C@@H](NC(=O)[C@H](CC(C)C)NC(=O)[C@H](CC(N)=O)NC(=O)[C@H](Cc1c[nH]c2ccccc12)NC(=O)c1ccc(N2CCOCC2)nc1)C(C)C)C(=O)NCC(=O)N[C@@H](CC(C)C)C(=O)N[C@H](C(=O)N[C@@H](CCCNC(=N)N)C(N)=O)[C@@H](C)O [Compound 172] (X8-WNLVRIGLTR-NH2)	≥ 50	8.5	–	–
CC[C@H](C)[C@H](NC(=O)[C@H](CCCNC(=N)N)NC(=O)[C@@H](NC(=O)[C@H](CC(C)C)NC(=O)[C@H](CC(N)=O)NC(=O)[C@H](Cc1c[nH]c2ccccc12)NC(=O)CCc1cccnc1)C(C)C)C(=O)NCC(=O)N[C@@H](CC(C)C)C(=O)N[C@H](C(=O)N[C@@H](CCCNC(=N)N)C(N)=O)[C@@H](C)O [Compound 173] ({Propanoyl(3-(3-pyridyl))}-WNLVRIGLTR-NH2)	≥ 50	9.8	–	–
